Usually IC50 stands for the concentration that inhibits the measured activity by half. High values mean weaker potency in that assay, low ones greater potency in that assay.

The values below come from patent publication US10899741B2, “3,4-bipyridyl pyrazole derivative, and preparation method therefor and medical application thereof” (Jiangsu Hengrui Medicine Co., Ltd., priority 2016, dated 2021).

One data set addresses p38α kinase (Homo sapiens (Human), UniProt Q16539). The experiment in a line: Inhibition of p38α kinase activity (ADP-Glo kit). The format is biochemical. Particulars: ATP 50 μM, 27° C. 2.5 hours. As to the method: The inhibition of p38α kinase activity in vitro was determined by the following method.
The inhibition effect of the compounds of the present invention on p38α kinase activity was determined by the following experimental method:
(§1) p38α kinase assay kit (V9591, Promega) was used to assay enzyme activity. 2 μl of enzyme solution (the final concentration of enzyme in the reaction system was 0.5 ng/μL) formulated with reaction buffer (40 mM Tris pH 7.5, 20 mM MgCl2, 0.1 mg/ml BSA), 1 μl of a 3-fold gradient dilution of the compounds dissolved in 5% DMSO, and 2 μl of a mixed solution of ATP and p38 substrate peptide (the final concentration of ATP was 50 μM, and the final concentration of substrate was 0.2 μg/μL) were added successively to a 384-well plate (4514, Corning). After reaction at 27° C. for 2.5 hours, 5 μl of ADP-Glo solution in the kit was added to each well, then the plate was placed at 27° C. for 40 minutes. 10 μl of kinase assay reagent was then added to each well, then the plate was placed at 27° C. for 30 minutes. The chemiluminescence signal values were measured with a Victor 3 (PerkinElmer) multi-function microplate reader. The IC50 values of the compounds on enzyme inhibition were calculated using Graphpad prism software based on each concentration of the compound and the corresponding signal value thereof.
In general terms: In ADP-Glo the light output rises with the ADP produced.

Data set [1] deals with murine melanoma cell B16-F1 xenograft. Kind of data set: Therapeutic effect on B16-F1 xenograft C57 mice. The format is in vivo. The protocol:
Evaluation of the inhibition effect of the compound of Example 1 on the growth of murine melanoma cell B16-F1 xenograft on C57 mice.
Compound 1 was formulated into a 5 mg/ml aqueous solution using 0.5% CMC-Na+0.25% (v/v) Polysorbate 80. The administration concentration was 50 mg/kg, and the oral volume for intragastrical administration was 10 ml/kg.
Female C57BL/6J mice for laboratory use were purchased from SINO-BRITISH SIPPR/BK LAB. ANIMAL LTD., CO (Shanghai, China, Certificate No.: SCXK (Shanghai) 2008-0016), and the body weight of mice was from 16 to 20 g when purchased. After the animals were purchased, the test was started after 3 days of adaptive feeding. Feeding conditions: SPF grade. Animal feeding method: 12/12 hours light/dark cycle, temperature 23±1° C., humidity 40-50%, the animals were fed with standard sterilized murine feed, and had free access to food and water.
The C57 mice after adaptive feeding were fasted overnight in a metabolic cage, and divided randomly into the following groups after weighing: blank control group and Compound 1 group, 10 mice per group. The skin preparation on the right flank of C57 mice was carried out one day in advance, B16-F1 cells were subcutaneously inoculated ([…] cells per mouse), and administration was started on the third day after inoculation. Each mouse was intragastrically administrated with Compound 1 (i.g., 10 ml/kg) twice a day, and the blank group was intragastrically administrated with the corresponding solvent. The tumor volume was measured twice a week, the body weight was weighed and the data were recorded.
Excel statistical software was used: the average value was calculated by avg; the SD value was calculated by STDEV; the SEM value was calculated as STDEV/SQRT: the difference between the groups P value was calculated by TTEST.
The calculation formula of tumor volume (V) is: V=½×Llength×Lshort^2
Tumor inhibition rate (%)==(C−T)/C (%)
Wherein V0 and VT are the tumor volumes at the beginning of the test and at the end of the test, respectively. C and T are the average tumor volumes of the Blank group and the test group at the end of the test, respectively.

In a further data set the target is TGFβRI kinase ALK5 (Homo sapiens (Human), UniProt P36897). The experiment in a line: Inhibition of TGFβRI kinase ALK5 activity (ADP-Glo kit). The class given is biochemical. The note with it: ATP 50 μM, 27° C. 2.5 hours. As to the method:
The inhibition effect of TGFβRI kinase activity in vitro was determined by the following method.
The inhibition effect of the compounds of the present invention on TGFβRI kinase ALK5 activity was determined by the following experimental method:
as §1, with “TGFβRI kinase” for “p38α kinase”, “kit (V4093,” for “kit (V9591,”, “was 2” for “was 0.5”, “and TGFβRI” for “and p38”, “compounds for” for “compounds on”

The nature of data set [2]: Toxicity assay, repeated intragastrical administration to SD rats for 7 days. The class given is in vivo. Particulars: 30 and 100 mg/kg qd. The protocol:
Evaluation of the toxicity of TGFβ inhibitor Compound 1 repeatedly intragastrically administered to SD rats for 7 days.
Twenty six SPF grade SD rats (approximately 180˜200 g, 6-7 weeks old, half male and half female) were purchased from Shanghai Jiesijie Laboratory Animal Co., Ltd.
Feeding conditions: SPF grade, animals were housed in plastic transparent rat cages, and 2-3 rats per cage. Room temperature: 20-26° C., relative humidity: 40-70%. 12 hours light/12 hours dark were alternated. The rats had free access to pellet feed for rats. The rats had free access to high-temperature sterilized water via drinking bottle.
The animals were divided randomly into 5 groups, i.e. solvent control group, compound 1—30 mg/kg group, compound 1—100 mg/kg group, and the corresponding toxicokinetics groups. There were 6 rats in solvent control group, compound 1—30 mg/kg group and compound 1—100 mg/kg group, and there were 4 rats in each corresponding toxicokinetics groups, half male and half female.
The dose of the test compound in the 7-day toxicity assay in rats was 30 and 100 mg/kg (qd), respectively, and the administration was continued for 7 days. Administration route: intragastrical administration, administration dosage: 10 ml/kg, administration frequency and administration period: daily morning administration, continuous administration for 7 days.
The results of various indicators were entered into computer Excel and entered and processed by SPSS software package.
The clinical symptom, food intake and anatomical gross observation were not processed statistically, and only the observation data of the observation items in the protocol were listed. Indicators such as body weight, organ weight, and clinical examination were processed statistically using SPSS.

TGFβRI kinase ALK5, sequence (P36897 34-503): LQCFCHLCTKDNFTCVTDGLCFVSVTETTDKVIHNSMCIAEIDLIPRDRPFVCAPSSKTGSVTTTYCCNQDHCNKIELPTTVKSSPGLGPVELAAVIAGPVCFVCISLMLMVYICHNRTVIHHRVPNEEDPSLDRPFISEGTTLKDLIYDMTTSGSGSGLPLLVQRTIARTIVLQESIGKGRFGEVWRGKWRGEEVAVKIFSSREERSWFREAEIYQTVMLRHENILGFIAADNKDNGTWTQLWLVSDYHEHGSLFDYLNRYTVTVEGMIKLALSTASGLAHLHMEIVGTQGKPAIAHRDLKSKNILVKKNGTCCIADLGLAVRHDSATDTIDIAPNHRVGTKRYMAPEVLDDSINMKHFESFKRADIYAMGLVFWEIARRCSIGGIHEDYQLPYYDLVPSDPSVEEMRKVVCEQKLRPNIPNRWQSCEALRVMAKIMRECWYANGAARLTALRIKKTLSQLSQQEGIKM
p38α kinase, sequence (Q16539 whole entry): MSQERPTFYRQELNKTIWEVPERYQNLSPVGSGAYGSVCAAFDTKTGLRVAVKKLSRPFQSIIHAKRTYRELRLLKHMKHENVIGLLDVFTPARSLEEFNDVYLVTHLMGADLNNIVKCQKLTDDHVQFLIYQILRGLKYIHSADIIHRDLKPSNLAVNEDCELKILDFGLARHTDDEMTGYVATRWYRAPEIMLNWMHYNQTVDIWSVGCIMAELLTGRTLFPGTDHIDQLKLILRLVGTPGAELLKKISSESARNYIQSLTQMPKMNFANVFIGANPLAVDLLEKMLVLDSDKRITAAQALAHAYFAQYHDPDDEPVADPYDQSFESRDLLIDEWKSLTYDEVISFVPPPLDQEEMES

Molecule `Cc1cccc(-c2nn(C3CCC3)cc2-c2ccnc(-c3ccc(S(C)(=O)=O)cc3)c2)n1` [Example 1, 4-(1-Cyclobutyl-3-(6-methylpyridin-2-yl)-1H-pyrazol-4-yl)-2-(4-(methylsulfonyl)phenyl)pyridine] gave a 50% inhibitory concentration (IC50) against p38α kinase of 2200 nM. Further, in data set [1] (50 mg/kg i.g. twice a day), the “Effect on the body weight of the mice” value is “no effect”. Besides, the “Tumor volume compared with the blank control group” value in data set [1] (Day 19, 50 mg/kg i.g. twice a day) was “significantly smaller”. Further, the “Average tumor volume d0” value in data set [1] (d0, 50 mg/kg po bid/20d) is listed as 0.00 mm^3. Further, the “Average tumor volume d22” value in data set [1] (d22, 50 mg/kg po bid/20d) worked out at 301.53 mm^3. Also, it took 208 nM to reach half-maximal inhibition at TGFβRI kinase ALK5 (IC50). Besides, in data set [2] (7 days), the Blood biochemical indicators entry is on record as “No toxicological changes”; the “Coagulation function and urine indexes compared with the solvent control group” value is given as “no obvious abnormalities”; the Food intake entry is “no obvious change”; the “Safety under the conditions of this assay” value is on record as “good safety”. In addition, the “Clinical observation of the animals during the administration” value in data set [2] (7 days, intragastrical) was “no obvious abnormality”. Further, in data set [2] (7 days, p>0.05), the “Body weight and body weight growth rate compared with the solvent control group” value was “no significant difference”. Moreover, the “Gross pathological anatomy (autopsy)” value in data set [2] (after the last administration) is “no obvious abnormalities”.
Consider `Cc1cccc(-c2nn(C3CC3)cc2-c2ccnc(-c3ccc(S(C)(=O)=O)cc3)c2)n1` [Example 2, 4-(1-Cyclopropyl-3-(6-methylpyridin-2-yl)-1H-pyrazol-4-yl)-2-(4-(methylsulfonyl)phenyl)pyridine], for which the 50% inhibitory concentration (IC50) came to 1000 nM against p38α kinase and 270 nM against TGFβRI kinase ALK5.
